These results are taken from patent US20230067910A1, “NOVEL COMPOUNDS FOR THE DIAGNOSIS, TREATMENT AND PREVENTION OF DISEASES ASSOCIATED WITH THE AGGREGATION OF ALPHA-SYNUCLEIN” (MODAG GMBH, priority 2019, published 2023).

Like-named read-outs stand apart in the source and are kept apart here. A value given as a limit tells only on which side of the number the result lay.

By Kd is commonly meant a measure of binding affinity in units of concentration. High values mean lower affinity, low ones higher affinity. In general, Ki refers to the equilibrium dissociation constant of an inhibitor or competing ligand from its target.

Test [1] concerns the target T1, aggregated alpha-synuclein (Homo sapiens, UniProt P37840).
T1 construct: made in house; host or cells: E. coli
Put plainly: Autoradiography using human brain tissue (dementia with Lewy bodies). It counts as binding. The method, then:
Autoradiography was performed on histological slices of frozen brain tissue using tritiated compound 1 and brain tissue derived from the cingulate gyrus of a patient with dementia with Lewy bodies.

The next test concerns the target T2, aggregated tau46 (Homo sapiens, UniProt P10636).
T2 construct: made in house; host or cells: E. coli
Put plainly: Saturation binding assay, protocol 2a, tau46 fibrils. The following applies: saturation assay protocol 2a, [3H]-labeled compound. The method, then:
(§1) Alpha-synuclein and tau46 were purified from E. coli according to established protocols (Nuscher B, et al., J. Biol. Chem., 2004; 279(21):21966-75), Aβ1-42 was obtained from rPeptide, Watkinsville, Ga., USA. Fibrils were prepared by aggregation of recombinant protein via constant agitation. In detail, 70 μM of alpha-synuclein mixed with 100 mM NaCl in 50 mM Tris, pH 7.0+0.02% NaN3 were incubated at 1,400 rpm, 37° C. for 96 h. 10 μM of tau46 were incubated with 0.03 mg/ml heparin in 50 mM Tris, pH=7.0 at 1,000 rpm, 37° C. for 72 h. Aβ1-42 was solved in 20 mM NaPi, pH=8.0+0.2 mM EDTA+0.02% NaN3 (Deeg A A, et al., Biochim. Biophys. Acta, 2015; 1850(9): 1884-90; Goedert M, et al. Nature, 1996; 383(6600): 550-3).
(§2) Sonicated αSYN (0.04 μM) or tau46 (0.4 μM) or Aβ1-42 (6 μM) fibrils diluted in PBS were incubated with decreasing concentrations of [^3H]-labeled compound (48 nM or 24 nM-[…]) in 50 mM Tris-base, 10% ethanol, 0.05% Tween20, pH 7.4. […]
(§3) Assay plates were incubated under agitation at 37° C. for 2 h, covered by plastic foil (Resealable tape, PerkinElmer, Waltham, Mass., USA). […] Accumulation of tritium was counted in a liquid scintillation counter (Wallac MicroBeta® TriLux, 1450 LSC & Luminescence Counter, PerkinElmer, Waltham, Mass., USA) immediately. Radioactivity was plotted against the increasing tritium-labeled compound or cold compound concentrations. […]

Test [2] addresses T3, alpha-synuclein (sonicated fibrils) (Homo sapiens, UniProt P37840).
T3 construct: made in house; host or cells: E. coli
Kind of test: Modified competition binding assay, protocol 3b, reference ligand [3H]-compound 1. The note with it: reference ligand [3H]-compound 1 (1 nM).

The target in the next test is T4, aggregated Abeta (Homo sapiens, UniProt P05067).
T4 construct: Aβ1-42 was obtained from rPeptide; purchased rPeptide, Watkinsville, Ga., USA
Kind of test: Saturation binding assay, protocol 2a, Abeta fibrils. The note with it: saturation assay protocol 2a, [3H]-labeled compound. The method, then: as §1, §2, §3

In the next test the target is T5, tau46 (fibrils) (Homo sapiens, UniProt P10636).
T5 construct: made in house; host or cells: E. coli
Kind of test: Competition binding assay, protocol 3a, reference ligand [3H]-compound 1, tau46 fibrils. The following applies: Experiment B, reference ligand [3H]-compound 1 (1 nM). The method, then:
as §1
A fixed concentration of sonicated human recombinant αSYN (200 nM/well) or tau46 (208 nM/well) fibrils diluted in phosphate buffered saline (PBS) were incubated in low binding plates (96 well micro test plate, Ratiolab GmbH, Dreieich, Germany) together with 1 nM [^3H]-compound 1 and 1:4 serial dilutions of the cold compound of interest starting from 1 μM diluted in 50 mM Tris-base, 10% EtOH, 0.05% Tween20, pH 7.4. For the calculation of Ki values the KD value of compound 1 toward sonicated human recombinant αSYN fibrils was set to 3 nM.
Assay plates were incubated under agitation at 37° C. for 2 h covered by plastic foil (Resealable tape, PerkinElmer, Waltham, Mass., USA). Prior to harvesting, a filter (Printed filtermat B, PerkinElmer, Waltham, Mass., USA) was incubated with 5 mg/mL polyethylenimine (PEI, Poly(ethyleneimine) solution, Sigma Aldrich Chemie GmbH, Taufkirchen, Germany) at 4° C. for 30 min. After incubation, bound and free ligands were separated by vacuum filtration using a harvester (Filtermate harvester, PerkinElmer, Waltham, Mass., USA). The filter was washed three times with buffer cooled to 4° C. and subsequently dried in the microwave for 2 min at medium power. The filter was sealed in a plastic bag (Sample bag for MicroBeta®, PerkinElmer, Waltham, Mass., USA) together with added scintillator (BETAPLATE SCINT, PerkinElmer, Waltham, Mass., USA). Accumulation of tritium was counted in a liquid scintillation counter (Wallac MicroBeta® TriLux, 1450 LSC & Luminescence Counter, PerkinElmer, Waltham, Mass., USA) immediately. Radioactivity was plotted against the increasing tritium-labeled compound or cold compound concentrations. Data points were fitted using nonlinear regression analysis in GraphPad Prism (GraphPad Software, Inc., Version 7.03, La Jolla, Calif., USA).
The fibril competition assay provides Ki values. Ki is a quantitative measure that represents the concentration of the non-radioactive tested compound (competitor ligand) required to replace 50% of a reference compound, in this case [H]-compound 1 (1 nM) or [H]-compound 2 (1 nM), which is bound to the target structures (1 nM), in our case recombinant alpha-synuclein and tau46 fibrils. This assay is suitable for a screening of non-radioactive ligands.

T4 sequence (P05067 672-713 limits assumed): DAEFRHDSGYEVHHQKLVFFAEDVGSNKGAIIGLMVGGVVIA
T2 sequence (P10636 1-412 isoform P10636-7): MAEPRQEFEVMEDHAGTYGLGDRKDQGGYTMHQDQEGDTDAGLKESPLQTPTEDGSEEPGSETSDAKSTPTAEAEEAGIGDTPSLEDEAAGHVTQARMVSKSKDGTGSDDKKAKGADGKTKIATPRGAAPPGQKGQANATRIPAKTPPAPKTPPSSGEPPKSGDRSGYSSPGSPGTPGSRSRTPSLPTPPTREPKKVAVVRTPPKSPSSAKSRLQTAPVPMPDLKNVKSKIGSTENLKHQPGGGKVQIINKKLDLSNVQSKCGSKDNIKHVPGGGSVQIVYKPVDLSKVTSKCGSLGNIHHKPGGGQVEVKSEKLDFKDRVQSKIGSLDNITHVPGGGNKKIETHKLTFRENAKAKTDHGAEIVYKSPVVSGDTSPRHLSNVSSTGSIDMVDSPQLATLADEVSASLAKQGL
T5 sequence (P10636 1-412 isoform P10636-7): as above

Consider `CN(C)c1ccc(-c2cc(-c3ccnc(Br)c3)[nH]n2)cc1` [Compound 1, 4-[3-(4-dimethylamino-phenyl)-1H-pyrazol-5-yl]-2-bromopyridine], for which the Autoradiography binding pattern result in test [1] ([3H]-compound 1 at 3 nM, cingulate gyrus, patient with dementia with Lewy bodies) is “preferential binding to the gray matter”. Besides, the “Unspecific binding to brain tissue” value in test [1] (specific binding blocked by excess of non-tritiated compound 1) is listed as “no to very low unspecific binding”. Also, the Kd is greater than 5 nM on aggregated tau46 and greater than 100 nM at aggregated Abeta. Moreover, the Ki in test [2] (Table 6 comparison series, read-out: Ki (nM), sonicated alpha-synuclein fibrils) was 0.4 nM.

In the case of `CNc1ccc(-c2cc(-c3ccnc(Br)c3)[nH]n2)cc1` [Compound 2, 4-[5-(2-bromopyridin-4-yl)-1H-pyrazol-3-yl]-N-methylaniline], the Kd on aggregated tau46 is greater than 15 nM; on aggregated Abeta it was greater than 100 nM. Moreover, the Ki at tau46 (fibrils) was 9 nM; in test [2] (Table 4b, read-out: Ki (nM) alpha-synuclein (sonicated fibrils)), 0.3 nM.
